Measured values as given in patent publication US20250017937A1, “MGLU2/3 ANTAGONISTS FOR THE TREATMENT OF INTELLECTUAL DISABILITIES” (Hoffmann-La Roche Inc., priority 2014, published 2025).

Tested on: Shank3 KO mice
Assay: Water maze cognition experiment (acquisition and reversal learning) in Shank3 KO mice
Type: in vivo, mouse
Settings: female SHANK3-KO mice
Excerpt: Example 1: Cognition experiment in Shank3 KO mice an animal model of ASD with reported impairment in cognition
11-12 female wild-type and Shank3 KO mice on C57B16/J background were from F. Hoffmann La Roche breeding facilities, and were 10 weeks old at the beginning of the study. 20male Nlgn3 knockout rats and 20 littermate wild-type controls (background: Sprague Dawley) were from F. Hoffmann La Roche breeding facilities. All rats and mice were group-housed in holding rooms at controlled temperature (20-22° C.), humidity (55-65%) and 12-h light/dark cycle (lights on 06:00 h). All animals were allowed ad libitum access to food and water. The experimental procedures used in the present investigation received prior approval from the City of Basel Cantonal Animal Protection Committee based on adherence to federal and local regulations.
II-a were synthesized at F. Hoffmann-La Roche Ltd. according to procedures known in the art^12. Both compounds were prepared as a suspension in 0.3% Tween 80 v/v 0.9% saline and administered per os by gavage using an administration volume of 5 ml/kg (rat) or 10 ml/kg (mouse). […] All doses reported in this study are expressed as free base equivalents.
On days 1-7, II-a was administered once daily per os with 10 mg/kg (WT: n=11: KO: n=12) or vehicle (WT: n=12; KO: n=12), 3 h prior to testing from day 1 of water maze until the last day of testing. The dose of II-a was reduced to 7 mg/kg on days 8-16. Water maze was conducted on days 1-12 of treatment, with 2 days for “shaping” prior to the start of drug treatment. The grooming/digging test was conducted on days 15-16. […]
Data analysis: The mean latency, path length, and swim speed were assessed during acquisition and reversal learning. In the probe trial, the percent time spent searching for the previous platform in each quadrant (left, platform, right, and opposite), and the number of platform crossings were measured.

Structure (SMILES): Cc1cc(-c2ccc(C(F)(F)F)cc2)cc(-c2cccc(-c3cccc(S(N)(=O)=O)c3)n2)n1 [II-a]
- latency to reach platform (mean latency during acquisition and reversal learning) (FIGS. 1 and 2, C57BL/6j background, 10 weeks old, II-a 10 mg/kg po chronic vs Veh): some improvement in latency to reach platform in KO mice only
- path length during acquisition and reversal learning (FIGS. 1 and 2, II-a 10 mg/kg po chronic vs Veh): significant block 7
- memory impairment in the KO-Veh compared to WT-Veh (water maze) (FIGS. 3 and 4, II-a 10 mg/kg po chronic, repeated measures analysis of variance): improvement
